Activity calls are given as the source filed them.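 Rule for the calls: active = compounds giving half or more protection of infected cells from virus-caused growth loss, again on retest; inactive = the rest.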 Where a SMILES comes first, the peptide text is derived from it. The star is where a group is joined. Fmoc = O=C(OCC1c2ccccc2-c2ccccc21)*; Boc = CC(C)(C)OC(=O)* A value given as a limit tells only on which side of the number the result lay.

The experiment has as its system CEM cells HIV-1 protection, formazan growth assay. The experiment can be described thus: NCI AIDS Antiviral Assay. Conditions: for IC50: measured here: growth of uninfected CEM cells. The essentials:
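Steps: treat uninfected and HIV-1-infected human CEM cells at five drug levels; quantify growth by soluble formazan; retest any compound reaching 50% protection; classify actives from the retest.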

For `O=c1c2c(F)c(F)c(F)c(F)c2sc2nccn12`, the EC50 (as a rule, the concentration at which the effect is half-maximal) is above 200 µM and the IC50 (in general, the concentration needed to halve the response being measured) was 3.89 µM.

In the case of `Cc1nc(-n2nc(-c3ccccc3)cc2-c2ccccc2)sc1C(=O)/C=C/c1ccc(Cl)c(Cl)c1`, the EC50 was above 26.3 µM and the IC50 was above 26.3 µM.

With `Cn1c(=O)c2c3oc(=O)cc(O)c3c(=O)n3c4ccccc4n(c1=O)c23`, the EC50 was above 2.14 µM and the IC50 was above 2.14 µM.

As for `O=C(Cc1ccccc1)NN1C(=O)C(Cl)C1c1ccc([N+](=O)[O-])cc1` (stereo unspecified), the EC50 was above 20 µM and the IC50 was above 20 µM.

Turning to `[N-]=[N+]=NC(=O)c1ccc(S(=O)(=O)c2ccc(F)cc2)cc1`, the result was inactive.

In the case of `CC(=O)/C(=C\c1ccccc1O)C(=O)Nc1ccccc1C`, the EC50 is above 33.9 µM and the IC50 was 22.4 µM.

`CC1=NN(C(=O)c2cc(Cl)cc([N+](=O)[O-])c2)C(=O)C1N=Nc1ccccc1C(=O)O` (stereo unspecified): the result was inactive.

As for `CN(NC(=O)c1ccc(Cl)cc1)C1=NCCCCN1`, the EC50 is above 200 µM and the IC50 was above 200 µM.

With `NNC(=O)C(=O)N/N=C(/CCC(=O)NCCc1ccccc1)CC(=O)c1ccccc1`, the outcome was inactive.

On to `COc1c2c(cc3c1C1(O)Cc4ccc5c(c4C[N+]1(C)CC3)OCO5)OCO2` (stereo unspecified), for which the EC50 was above 61.7 µM and the 50% inhibitory concentration (IC50) is above 61.7 µM.

As for `CCCCC1(CCO)C(=O)NC(=S)NC1=O`, the EC50 was above 200 µM and the IC50 is above 200 µM.

On to `COc1cccc(/C=N/NC(=O)c2ccccc2[O-])c1[O-].[Cu+2].[OH3+]`, for which the EC50 was above 200 µM and the IC50 is above 200 µM.

`O=C1c2ccccc2C(=O)N1CCc1ncc(-c2ccccc2)[nH]1`: the EC50 is above 200 µM and the IC50 is above 200 µM.

Turning to `Cc1cc(/C=C2/OC(=O)c3ccccc32)cc(C)c1O`, the EC50 was above 100 µM and the IC50 is above 100 µM.

Take `O=S(=O)(O)c1cc(S(=O)(=O)O)c2c(N=Nc3ccc(N=Nc4ccccc4)cc3)c(O)ccc2c1`: the EC50 was above 100 µM and the IC50 was above 100 µM.

On to `COC(=O)NC(S(=O)(=O)O)S(=O)(=O)O`, for which the result was inactive.

Take `COC1/C=C/OC2(C)Oc3c(C)c(O)c4c(O)c(c(/C=N/N5C(C)CN(Cc6ccccc6C#N)CC5C)c(O)c4c3C2=O)NC(=O)/C(C)=C\C=C\C(C)C(O)C(C)C(O)C(C)C(OC(C)=O)C1C` (stereo unspecified): the EC50 is above 200 µM and the IC50 was 7.41 µM.

As for `Cc1c(CCl)c(=O)oc2c(C)c3occ(CCl)c(=O)c3cc12`, the EC50 is above 11.2 µM and the concentration for half-maximal inhibition (IC50) was 4.9 µM.

Take `CCOc1ccc(N=NC2C(=O)N(C(=O)CC(=O)Nc3ccccc3)N=C2C)cc1` (stereo unspecified): the EC50 is above 200 µM and the half-maximal inhibitory concentration (IC50) stood at 20.4 µM.

For `CN(C)N1C(=O)S/C(=C\c2ccc([N+](=O)[O-])cc2)C1=O`, the EC50 is above 200 µM and the IC50 is above 200 µM.

As to `Cc1cc(Br)cc(C)c1NC(=O)C(=O)Nn1c(=S)[nH]c2ccccc2c1=O`, the EC50 was above 209 µM and the IC50 was above 209 µM.

Regarding `C[N+](C)(C)CC1CCCC/C1=N\O` (stereo unspecified), the EC50 was above 794 µM and the IC50 was above 794 µM.

Take `CCCCCCC[CH2][Sn]1([CH2]CCCCCCC)[O]C(=O)c2cccnc2[O]1`: the EC50 was above 7.41 µM and the 50% inhibitory concentration (IC50) is above 7.41 µM.

With `Cc1nn(C(=O)c2ccccc2O)c2c1C(c1ccccc1O)SC(N)=N2` (stereo unspecified), the EC50 is above 2 µM and the IC50 stood at 0.933 µM.

`COc1cc(\C=N/N=C/C=C/c2ccccc2)cc(OC)c1OC`: the outcome was inactive.

For the compound `Cn1nc(-c2ccccc2)c(C(=O)/C=C/c2ccc(F)cc2)c(N2CCCC2)c1=O`, the EC50 is 26.3 µM and the IC50 stood at 36.3 µM.

Take `COC(=O)CCCc1ccc2c(c1)CC1(C2)Cc2cc3c(cc2C1)CCCC3`: the EC50 was above 200 µM and the IC50 is 81.3 µM.

Take `O=C1C2=C(SCCS2)C(=O)c2ccccc21`: the EC50 was above 42.7 µM and the IC50 came to 0.676 µM.

For the compound `CN1OC(CO)CC12C1CC3CC(C1)CC2C3` (stereo unspecified), the EC50 is above 1050 µM and the IC50 was found to be 537 µM.

As to `CCCCCCCCCCCc1nnc(N)o1`, the result was inactive.

As to `N#CNC1=NCCC(=O)N1CCc1c[nH]c2ccccc12`, the EC50 was 70.8 µM and the IC50 is above 200 µM.

Take `O=C(C1OC1c1ccc(Cl)cc1)C12CC3CC(CC(C3)C1)C2` (stereo unspecified): the EC50 is above 200 µM and the IC50 is 18.2 µM.

On to `CC(C)OC(=O)C1Cc2c([nH]c3ccccc23)C(c2ccccc2)N1` (stereo unspecified), for which the outcome was inactive.

On to `CN(C)C=Nc1cccc2c1NSN2`, for which the EC50 is above 200 µM and the IC50 is above 200 µM.

Take `O=S(O)CCCCSSCCCCS(=O)(O)=S`: the outcome was inactive.

For `C=CCN1C(=O)CS/C1=N\NC(=O)c1c(C)nc2sccn12`, the EC50 was above 741 µM and the IC50 was 240 µM.

On to `CC1=C(\C=C/C(C)=C/C=C/C(C)=C/C=N/N=C/C=C(C)\C=C\C=C(C)/C=C/C2=C(C)CCCC2(C)C)C(C)(C)CCC1`, for which the EC50 was above 200 µM and the IC50 is 45.7 µM.

Consider `O=C1NC(=S)S/C1=C\c1ccc2c(c1)OCO2`, for which the EC50 was above 200 µM and the IC50 came out at 85.1 µM.

Consider `CON(C)C(=O)C(Cc1ccccc1)NC(=O)OCc1ccccc1` (stereo unspecified), for which the EC50 was above 200 µM and the IC50 is 182 µM.

For the compound `CC(C)CCCC(C)[C@H]1CC[C@@H]2[C@H]3CC[C@H]4C[C@@H](CCC=C(c5cc(Cl)c(OCc6ccccc6[N+](=O)[O-])c(C(=O)OCc6ccccc6[N+](=O)[O-])c5)c5cc(Cl)c(OCc6ccccc6[N+](=O)[O-])c(C(=O)OCc6ccccc6[N+](=O)[O-])c5)CC[C@]4(C)[C@@H]3CC[C@]12C` (stereo partly specified), the EC50 was 112 µM and the IC50 is above 200 µM.

As for `O=C(O)CC(=O)Nc1ccccc1S`, the EC50 was above 200 µM and the IC50 was above 200 µM.

In the case of `CC(C)(C)OC(=O)NCCCCC(NC(=O)OCC1c2ccccc2-c2ccccc21)C(=O)N1CCCC1C(=O)NCC(N)=O` (stereo not drawn) (Fmoc-Lys(Boc)-Pro-Gly-NH2; configuration not given here), the EC50 was 69.2 µM and the IC50 was found to be 91.2 µM.

`OC(CCNC12CC3CC(CC(C3)C1)C2)c1ccccc1` (stereo unspecified): the outcome was inactive.

Regarding `C=C(C)COC1CCCCO1` (stereo unspecified), the EC50 is above 200 µM and the IC50 was 38 µM.

On to `COc1ccccc1-n1c(=S)n(-c2ccccc2C)c2nc3ccccc3nc1/c2=N\Nc1ccccn1`, for which the EC50 was above 200 µM and the IC50 is above 200 µM.

As for `O=C1OC2(C(F)(F)F)Oc3ccccc3CN2C12CCCCC2` (stereo unspecified), the EC50 was above 200 µM and the half-inhibitory concentration (IC50) turned out to be 115 µM.

For `CC12c3ccccc3C(c3ccccc31)C1C(=O)OC(=O)C12` (stereo unspecified), the EC50 was above 135 µM and the IC50 is 21.4 µM.

Take `CCOC(=O)c1ccc(CSc2ccccc2)c([N+](=O)[O-])c1`: the EC50 is above 58.9 µM and the IC50 is above 58.9 µM.

As to `O=C(O)c1ccc2c(c1)S(=O)(=O)c1ccccc1C2=O`, the EC50 was above 200 µM and the IC50 was above 200 µM.

Regarding `CC(=O)N(C(C)=O)c1c(N)n(C)c(=O)[nH]c1=O`, the outcome was inactive.

On to `O=C1OC(OC2OC(=O)c3ccccc32)c2ccccc21` (stereo unspecified), for which the EC50 was above 200 µM and the concentration for half-maximal inhibition (IC50) is above 200 µM.

As for `CCN(C(C)=N)c1ccccc1`, the EC50 was above 295 µM and the 50% inhibitory concentration (IC50) was determined as 67.6 µM.

As to `CC(=O)C1(c2ccccc2)CCCN(C)CC1` (stereo unspecified), the outcome was inactive.

With `C[C@]12CC[C@H](O)CC1=CC[C@@H]1C2CC[C@]2(C)Nc3[nH]ncc3CC12` (stereo partly specified), the result was inactive.

In the case of `c1ccc(C[N+]23CCC(CC2)C3c2ccccc2)cc1` (stereo unspecified), the EC50 was above 832 µM and the IC50 was found to be 148 µM.

In the case of `CC(C)/C(Cl)=N\OC(=O)Nc1ccc(F)c([N+](=O)[O-])c1`, the EC50 was above 200 µM and the IC50 is 3.02 µM.

For the compound `CN(N=O)C(=O)N(N)CCCCC(NC(=O)OCc1ccccc1)C(=O)OCc1ccccc1` (stereo unspecified), the EC50 was above 39.8 µM and the IC50 was above 39.8 µM.

For `Cc1cc(C(=O)CSC(=S)SC(C)(C)C)ccc1Cl`, the EC50 is above 30.2 µM and the IC50 was above 30.2 µM.

Turning to `Cc1ccc(N(C=O)c2c([N+](=O)[O-])cc([N+](=O)[O-])c3c2=[N+]([O-])CN=3)cc1`, the EC50 was above 7.59 µM and the IC50 is above 7.59 µM.

As to `Cc1ccccc1Nc1nc(NNC(=O)Cc2ccccc2)nc(NNC(=O)c2ccncc2)n1`, the EC50 is 155 µM and the IC50 worked out at 407 µM.

In the case of `OC(c1ccccc1)c1c(-c2ccccc2)[nH]c(-c2ccccc2)c1C(O)c1ccccc1` (stereo unspecified), the result was inactive.

In the case of `CC1(CO)COc2ccccc2C1=O` (stereo unspecified), the EC50 is above 200 µM and the IC50 is above 200 µM.

As to `O=P(O)(O)C(NCC(O)CN1CCOCC1)P(=O)(O)O` (stereo unspecified), the EC50 is above 200 µM and the IC50 is above 200 µM.

As for `COc1cc2c(cc1O)C1Cc3ccc(OC)c(O)c3C(C2)N1C` (stereo unspecified), the EC50 is above 200 µM and the IC50 was determined as 85.1 µM.

Turning to `COC(=O)c1cc(C(=CCCCCN=[N+]=[N-])c2cc(Cl)c(OC)c(C(=O)OC)c2)cc(Cl)c1OC`, the concentration for a half-maximal effect (EC50) is 19.1 µM and the IC50 is above 200 µM.

Take `CCOP(=O)(OCC)OCCOCCOP(=O)(OCC)OCC`: the EC50 was above 200 µM and the IC50 was above 200 µM.

For `O=C1CSc2nc3ccccc3n2/C=N\N1`, the EC50 is above 200 µM and the half-inhibitory concentration (IC50) is above 200 µM.

With `CC1CC(O)c2ccccc2O1` (stereo unspecified), the EC50 is above 200 µM and the IC50 is above 200 µM.

For the compound `CCN1C[C@]2(COC)C(O)CC(OC)C34[C@@H]5C[C@@]6(O)C(O)[C@@H]5[C@](O)(C(O)[C@@H]6OC)[C@@H](C(OC)[C@@H]32)[C@H]14` (stereo partly specified), the outcome was inactive.

Consider `COC(=O)C1C(OC(=O)C(Cl)(c2ccccc2)c2ccccc2)CC2CCC1N2C` (stereo unspecified), for which the EC50 is above 200 µM and the IC50 is above 200 µM.

The values above are taken from PubChem BioAssay AID179 (DTP/NCI, 2004).
